Measurements reported in patent US20240043384A1, “INHIBITORS OF PU.1 FOR THE TREATMENT OF DISEASE” (Board of Regents, The University of Texas System, priority 2021, published 2024).
pIC50: −log10 of the molar value.

Each compound was assayed on THP-1 CD14 (assay: THP-1 CD14 Screening Assay). Details: Homo sapiens, THP-1, 72 h, THP-1 cells treated with PMA and compound (5-point 10-fold dilution), human CD14 ELISA on media.
Format: cell-based
Procedure: THP-1 CD14 Screening Assay Protocol:
5×10^4 THP-1 cells were plated per well in a tissue culture-treated 96-well plate. At the time of plating, cells were treated with a final concentration of […] PMA and 0.04% DMSO vehicle, concominant with compounds in a 5-point 10-fold dilution per compound. Cells were treated with PMA and DMSO as a control for differentiation without compound treatment, and with only DMSO as a control for no differentiation and no compound treatment. 500 nM IACS-71432 was added as a control compound across all assay plates.
After incubation at 37° C./5% CO2 for 72 hr, media was collected from the cells and the screening assay was performed using the commercially-available human CD14 SimpleStep ELISA kit from Abcam, according to the following protocol: • 1) ELISA kits were taken out to equilibrate to rt. • 2) Following the protocol listed in the kit, standards were prepared as 1:1 dilutions from 2 ng/ml. • 3) Following the protocol listed in the kit, antibody cocktail was prepared (the volume is contingent on the number of wells required). • 4) 50 μl of standards were added to the appropriate wells, thoroughly mizing the standards before adding to each well. • 5) 25 μl of Sample Diluent (from kit) was added to all sample wells. • 6) Cell plates were centrifuged for 5 min at 300 rcf, with slow acceleration and slow deceleration. • 7) 25 μl of media from cell plates was transferred to assay plates containing standards. • 8) 50 μl of antibody cocktail was added to all of the wells, standards and samples. • 9) Assay plates were sealed tightly and incubated on the plate shaker at 400 rpm for 1 hr at rt. • 10) Wash buffer was prepared following the protocol listed in the kit. • 11) After the hour incubation, assay plates were washed 5 times using 200 μl wash buffer per well per wash. • 12) 100 μl of TMB substrate was added to each well in the dark and incubated on the shaker for 3-4.min, at which point color development was monitored to ensure a robust signal for detection but to avoid oversaturation of signal, for no longer than 10 min. • 13) The absorbance at 607 nm was read on a Perkin Elmer Envision plate reader. • 14) Data was processed using Microsoft Excel and GraphPad Prism.

Row | pIC50 | SMILES
1 | > 8.30 | Cc1cc(-c2ccc(S(=O)(=O)NCc3ccncc3)cc2)ccn1 [Example 40, 4-(2-methylpyridin-4-yl)-N-(pyridin-4-ylmethyl)-benzenesulfonamide]
2 | > 8.30 | Cc1ccnc(-c2ccc(S(=O)(=O)NCc3ccncc3)cc2)c1 [Example 41, 4-(4-methylpyridin-2-yl)-N-(pyridin-4-ylmethyl)-benzenesulfonamide]
3 | > 8.30 | Cc1ccc(-c2ccc(S(=O)(=O)NCc3ccncc3)cc2)nc1 [Example 42, 4-(5-methylpyridin-2-yl)-N-(pyridin-4-ylmethyl)-benzenesulfonamide]
4 | > 8.30 | O=S(=O)(NCc1ccncc1)c1ccc(-c2ncccc2Cl)cc1 [Example 43, 4-(3-chloropyridin-2-yl)-N-(pyridin-4-ylmethyl)-benzenesulfonamide]
5 | > 8.30 | Cn1ncc2cc(-c3ccc(S(=O)(=O)NCc4ccncc4)cc3)ccc21 [Example 44, 4-(1-methyl-1H-indazol-5-yl)-N-(pyridin-4-ylmethyl)-benzenesulfonamide]
6 | > 8.30 | O=S(=O)(NCc1ccncc1)c1ccc(-c2ccc3ncoc3c2)cc1 [Example 45, 4-(benzo[d]oxazol-6-yl)-N-(pyridin-4-ylmethyl)-benzenesulfonamide]
7 | > 8.30 | O=S(=O)(NCc1ccncc1)c1ccc(-c2ccc3ncsc3c2)cc1 [Example 46, 4-(benzo[d]thiazol-6-yl)-N-(pyridin-4-ylmethyl)-benzenesulfonamide]
8 | > 8.30 | Cc1nc2cc(-c3ccc(S(=O)(=O)NCc4ccncc4)cc3)ccc2o1 [Example 47, 4-(2-methyl-benzo[d]oxazol-5-yl)-N-(pyridin-4-ylmethyl)-benzenesulfonamide]
9 | > 8.30 | O=S(=O)(NCc1ccncc1)c1ccc(-c2ccc3ocnc3c2)cc1 [Example 48, 4-(1,3-benzoxazol-5-yl)-N-[(pyridin-4-yl)methyl]benzene-1-sulfonamide]
10 | 6.30 to 7.00 | O=c1[nH]ccc2cc(-c3ccc(S(=O)(=O)NCc4ccncc4)cc3)ccc12 [Example 50, 4-(1-oxo-1,2-dihydro-isoquinolin-6-yl)-N-(pyridin-4-ylmethyl)-benzenesulfonamide]
11 | > 8.30 | O=S(=O)(NCc1ccncc1)c1ccc(-c2ccc3ccoc3c2)cc1 [Example 51, 4-(benzofuran-6-yl)-N-(pyridin-4-ylmethyl)-benzenesulfonamide]
12 | > 8.30 | O=S(=O)(NCc1ccncc1)c1ccc(-c2ccc3cccnc3c2)cc1 [Example 52, N-(pyridin-4-ylmethyl)-4-(quinolin-7-yl)benzenesulfonamide]
13 | > 8.30 | O=S(=O)(NCc1ccncc1)c1ccc(-c2ccc3c(c2)OCO3)cc1 [Example 53, 4-(benzo[d][1,3]dioxol-5-yl)-N-(pyridin-4-ylmethyl)-benzenesulfonamide]
14 | 6.30 to 7.00 | O=S(=O)(NCc1ccncc1)c1ccc(-c2ccc3ncnc(O)c3c2)cc1 [Example 54, 4-(4-hydroxyquinazolin-6-yl)-N-(pyridin-4-ylmethyl)-benzenesulfonamide]
15 | > 8.30 | O=S(=O)(NCc1ccncc1)c1ccc(-c2ccc3c(c2)OCCO3)cc1 [Example 55, 4-(2,3-dihydrobenzo[b]-[1,4]dioxin-6-yl)-N-(pyridin-4-ylmethyl)-benzenesulfonamide]
16 | 7.00 to 8.30 | O=C1NCCc2ccc(-c3ccc(S(=O)(=O)NCc4ccncc4)cc3)cc21 [Example 56, 4-(1-oxo-1,2,3,4-tetrahydroisoquinolin-7-yl)-N-(pyridin-4-ylmethyl)-benzenesulfonamide]
17 | 7.00 to 8.30 | O=C1NCc2ccc(-c3ccc(S(=O)(=O)NCc4ccncc4)cc3)cc21 [Example 57, 4-(3-oxoisoindolin-5-yl)-N-(pyridin-4-ylmethyl)-benzenesulfonamide]
18 | > 8.30 | O=S(=O)(NCc1ccncc1)c1ccc(-c2ccc3cc[nH]c3c2)cc1 [Example 58, 4-(1H-indol-6-yl)-N-(pyridin-4-ylmethyl)-benzenesulfonamide]
19 | > 8.30 | Cc1n[nH]c2cc(-c3ccc(S(=O)(=O)NCc4ccncc4)cc3)ccc12 [Example 59, 4-(3-methyl-1H-indazol-6-yl)-N-(pyridin-4-ylmethyl)-benzenesulfonamide]
20 | 7.00 to 8.30 | O=c1[nH]c2cc(-c3ccc(S(=O)(=O)NCc4ccncc4)cc3)ccc2o1 [Example 61, 4-(2-oxo-2,3-dihydro-benzo[d]oxazol-5-yl)-N-(pyridin-4-ylmethyl)-benzenesulfonamide]
21 | 6.30 to 7.00 | O=c1[nH]c2ccc(-c3ccc(S(=O)(=O)NCc4ccncc4)cc3)cc2o1 [Example 62, 4-(2-oxo-2,3-dihydro-benzo[d]oxazol-6-yl)-N-(pyridin-4-ylmethyl)-benzenesulfonamide]
22 | > 8.30 | Cn1ncc2c(NS(=O)(=O)c3ccc(C4CCCCC4)cc3)cccc21 [Example 63, 4-cyclohexyl-N-(1-methyl-1H-indazol-4-yl)benzenesulfonamide]
